The values below come from patent US11021690B2, “Mutant-type uricase, PEG modified mutant-type uricase, and application thereof” (SHANGHAI INSTITUTE OF BIOLOGICAL PRODUCTS CO., LTD., priority 2015, dated 2021).

Assay [1] has as its system PEG-K103C: recombinant urate oxidase (uricase, PBC, SEQ ID NO: 1) mutant K103C, PEG-modified (mPEG-MAL, approximately 20 kD). The assay can be described thus: Determination of Michaelis constant of PEG-modified K103C (uric acid oxidation, UV absorbance at 290 nm). In kind it is biochemical. The settings on record: substrate uric acid, after PEG modification. The method, then:
(§1) The activity of uricase was detected by UV spectrophotometry, enzymatic reaction rate was detected by measuring the decrease in absorbance at 290 nm caused by the oxidation of uric acid to allantoin. The enzyme activity unit is defined as follows: at 37° C., pH 8.5, the amount of uricase needed to catalyze the decomposition of 1 μmol of uric acid per minute is defined as 1 enzyme activity unit. The efficacy of uricase is represented as the activity unit of protein per mg (U/mg). […] Therefore, the oxidation of 1 μM uric acid in the reaction caused the reduction of absorbance by 12.04 mAu. The absorbance is derived from the linear part as the changes of the uric acid concentration. Wherein the calculation formula of enzyme activity is shown as follows: Enzyme activity (U/ml)=(ODb−ODt)*Vt*df/12.04*1.0*Vs*t
(§2) (Odb: the absorbance value in a blank control tube; Odt: the absorbance value in a detection tube; Vt: the total reaction volume, 1.28 ml; df: the dilution fold before sample addition to the system; Vs: the total volume after adding the test sample of uricase, 0.2 ml; t: the reaction time, 5 min; 12.04: the molar extinction coefficient of the substrate, uric acid under the test conditions; 1.0: optical path of cuvette, 1.0 cm) Enzyme activity (U/mg)=(U/ml)/C
(§3) (1) 1 mL of uric acid working solution was added to 2 EP tubes, respectively, marked as a reaction tube and a control tube, and subjected to the warm bath at 37° C. for 5 mins;
(§4) (2) Reaction tube: 200 μL of diluted enzyme solution was added at 37° C., and reacted for 5 min; control tube: no treatment at 37° C. and reacted for 5 min;
(§5) (3) Reaction tube: 80 μL, 20% of KOH was added to quench the reaction; control tube: after 80 μL, 20% of KOH was added to quench the reaction, 200 μL of diluted enzyme solution was added;
(4) UV absorption wavelength was determined at 290 nm. […]
(§6) By comparing Michaelis constant, the maximum enzymatic reaction rate and the catalytic constant of the mutant K103C before and after PEG modification, the effect of PEG modification on mutant uricase was evaluated.

In assay [2] the test system is recombinant urate oxidase K103C (uricase, PBC, SEQ ID NO: 1, mutant K103C), unmodified. Description: Determination of Michaelis constant of unmodified K103C (uric acid oxidation, UV absorbance at 290 nm). It counts as biochemical. The settings on record: substrate uric acid, before PEG modification. The method, then: as §1, §2, §3, §4, §5
(4) UV absorption wavelength was determined at 290 nm.
as §6

As a reminder, the Km is the concentration of substrate that gives half-maximal velocity. What is called Vmax is the rate approached at saturating substrate. Usually kcat stands for the maximal rate divided by the concentration of active sites. `O=c1[nH]c(=O)c2[nH]c(=O)[nH]c2[nH]1` [uric acid]: in assay [1], the Km stood at 10.8 µM, the Vmax turned out to be 1.823 µM/min and the kcat was found to be 12.396 s⁻¹. Moreover, in assay [2], the Km amounted to 11.4 µM, the maximal velocity (Vmax) is 2.333 µM/min and the kcat stood at 15.864 s⁻¹.
